Legend:
[1] = molecular target: hSTING-CTD (Homo sapiens (Human), UniProt Q86WV6); experiment: Human STING protein FP competition concentration response assay; format: binding
Procedure: A validated STING ligand, such as c-di-GMP, which is labeled with a read-out signal (e.g., a fluorescence signal such as fluorescein), is mixed with STING-CTD (e.g., mouse STING-CTD or human STING-CTD) with or without the presence of a compound of the present application. Changes in the read-out signal are measured (e.g., by fluorescence anisotropy) to determine the binding of the compound to STING-CTD.
Fluorescein labeled c-di-GMP, a validated STING ligand, was mixed with recombinant hSTING-CTD in a homogenous assay format with or without the presence of a compound of the present application (titrated) in PBS in black 384-well plates (10 μL per well). The fluorescence anisotropy was determined on a PerkinElmer EnVisions multi-mode plate reader. The plate can be read immediately after mixing the reagents or after a few hours without change of signals.
• 1) hSTING (Supplier: HDB) • 2) 2′-Fluo-AHC-c-di GMP (BIOLOG #F009) • 3) 2′3′-cGAMP (BIOLOG #C161) • 4) DMXAA (InvivoGen #tlrl-dmx) • 5) DMSO (Sigma, #D5879-100 mL) • 6) 10×PBS(HDB #MCP-020) • 7) Assay plate, 384-well black plate, solid black bottom (Greiner #784076) • 8) Compound dilution intermediate plate, 384 LDV plate (Labcyte #LP-0200) • 9) Liquid handler, ECHO550 (Labcyte) • 10) Liquid handler, Bravo (Aglient) • 11) Reader, Envision (PerkinElmer) • 12) Centrifuge (Eppendorf) • 13) Multichannel Pipette (Raining) • 14) 10 ml Reservoir (Corning) • 15) 15 ml centrifuge tube (Corning) • 16) Adhesive Plate seals (BioRad) Compound Preparation • a) Containers of each compound were centrifuged at 1000 rpm for 5 min. • b) Compounds were dissolved in DMSO at 30 mM. • c) Compounds were sufficiently vortexed, and centrifuged at 1000 rpm for 1 min. • d) 16 uL of the compound solution was transferred into a LDV Compound Plate. • e) 2-fold serial dilutions of the compound solution were made with DMSO, and 14 concentrations were made in the 384-well LDV Compound Plate. • f) The LDV plate was spun at 1000 rpm for 60 sec and sealed with foil (stored at −20° C. if not used immediately). • g) 335 nL of each compound from the LDV Compound Plate was transferred to Assay Plate (ECHO550). Probe Preparation • a) 200 uM probe stock (2′-Fluo-AHC-c-diGMP) was diluted by ddH2O to 6 uM working concentration. • b) 10-12 uL 6 uM working solution of probe was transferred into the LDV plate. • c) 50 nL per well 6 uM working solution of probe was transferred from the LDV plate to each well of the empty Assay Plate (Greiner 784076) by ECHO550 Buffer mode. • d) Probe final concentration was 30 nM when assay system was 10 uL. • e) The Assay Plate was spun at 1000 rpm for 1 min. Compound Addition • a) After the LDV Compound Plate was prepared, 335 nL compound (ECHO550 DMSO mode) was transferred from the LDV Compound Plate into the Assay Plate (Greiner 784076) containing 50 nL probe in each well according to the Assay Plate layout. • b) DMSO final concentration was 3.35% when assay system was 10 uL. • c) The Assay Plate was spun at 1000 rpm for 1 min. Protein Addition • a) Aliquot of hSTING protein was thawed on ice, briefly to generate uniform solution. • b) 55 uM stock protein was diluted in 1×PBS assay buffer to generate 10 uM final solutions. • c) For test compound and ZPE wells, 10 μL per well of 10 uM protein solutions was added into the Assay Plate containing both the probe and test compounds or DMSO using multichannel pipette. • d) For HPE wells, 10 μL/well of 1×PBS assay buffer instead of protein was added into the Assay Plate containing both the probe and DMSO using multichannel pipette. • e) The Assay Plate was spun at 1000 rpm for Imin. • f) The Assay Plate was incubated at r.t. for 10-20 min.
The EnVision plate reader was used to record the FA value of each well immediately after mixing the reagents or after a few hours without change of signals.
The raw data and calculated data (Fluorescence anisotropy (FA)) was exported from the EnVision reader. […]

[2] = molecular target: hSTING-R232 (Homo sapiens (Human), UniProt Q86WV6, H232R); experiment: STING differential scanning fluorimetry (DSF) assay, WT human STING; conditions: WT (R232) human STING aa140-379, net shift in melting temperature
Chain of hSTING-R232 (Q86WV6 140-379 H232R): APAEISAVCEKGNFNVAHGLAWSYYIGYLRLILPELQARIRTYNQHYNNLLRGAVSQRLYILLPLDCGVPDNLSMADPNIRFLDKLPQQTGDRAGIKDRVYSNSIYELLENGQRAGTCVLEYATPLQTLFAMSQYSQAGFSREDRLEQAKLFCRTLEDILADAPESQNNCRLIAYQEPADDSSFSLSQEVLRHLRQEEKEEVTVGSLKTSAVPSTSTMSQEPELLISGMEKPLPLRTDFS

[3] = molecular target: STING protein (Homo sapiens (Human), UniProt Q86WV6, H232R); experiment: Cell based reporter assay of IRF activation (IRF-luciferase), THP1-dual-KI R232; conditions: read-out: THP1-dual-KI R232_IRF(Luciferase)_Activity Maximum measured (%)
Chain of STING protein (Q86WV6 whole entry H232R): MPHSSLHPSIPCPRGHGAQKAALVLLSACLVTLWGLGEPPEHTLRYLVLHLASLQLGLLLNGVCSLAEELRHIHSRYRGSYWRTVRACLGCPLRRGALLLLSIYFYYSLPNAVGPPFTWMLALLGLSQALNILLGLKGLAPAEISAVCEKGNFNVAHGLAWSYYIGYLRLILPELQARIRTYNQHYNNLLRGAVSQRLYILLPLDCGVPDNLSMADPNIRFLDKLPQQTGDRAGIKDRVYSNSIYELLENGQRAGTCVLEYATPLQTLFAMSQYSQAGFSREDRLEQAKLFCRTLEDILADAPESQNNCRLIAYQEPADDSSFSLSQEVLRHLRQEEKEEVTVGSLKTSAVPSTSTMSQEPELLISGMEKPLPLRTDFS

[4] = molecular target: mSTING-R232 (Mus musculus, UniProt Q3TBT3); experiment: STING differential scanning fluorimetry (DSF) assay, mouse STING; conditions: net shift in melting temperature
[5] = molecular target: mSTING (Mus musculus, UniProt Q3TBT3); experiment: Radiometric filtration binding competition assay, mSTING
Procedure: A radiometric filtration binding competition assay was performed to quantify the binding affinity of compounds of the present application for the human or mouse STING protein, or associated HAQ human isoform. […] The resulting dose response was fit by non-linear regression to determine an IC50 value, from which a Ki value for each compound was extrapolated.
The resulting complexes were then filtered, dried, and scintillation fluid was added and the remaining radio signal was measured to determine the degree of compound ligand inhibition. This assay format was optimized for both the WT and HAQ isoforms of the human protein and the mouse orthologue protein.
Probe Concentration: Minimum concentration that achieved max assay window • g. Assay Format: Scintillation Proximity Bead or Filtration Binding Plate • h. […] Assay incubation times for successive incubation steps
WT-hSWAT: WT_FBA_HIS-SUMO-hSWAT IC50 (μM) (“WT”=Wild-type); HAQ-hSWAT: HAQ_FBA_HIS-SUMO-hSWAT IC50 (μM) (“HAQ”=human HAQ allele of STING protein); and WT-mSWAT: MOUSE_FBA_HIS-SUMO-mnSWAT IC50 (μM) which is the mouse isoform of STING protein.

[6] = molecular target: hSTING-WT (Homo sapiens (Human), UniProt Q86WV6, H232R); experiment: Radiometric filtration binding competition assay, hSTING-WT
Chain of hSTING-WT (Q86WV6 140-379 H232R): as the sequence (Q86WV6 140-379 H232R) above

Chain of hSTING-CTD (Q86WV6 135-379): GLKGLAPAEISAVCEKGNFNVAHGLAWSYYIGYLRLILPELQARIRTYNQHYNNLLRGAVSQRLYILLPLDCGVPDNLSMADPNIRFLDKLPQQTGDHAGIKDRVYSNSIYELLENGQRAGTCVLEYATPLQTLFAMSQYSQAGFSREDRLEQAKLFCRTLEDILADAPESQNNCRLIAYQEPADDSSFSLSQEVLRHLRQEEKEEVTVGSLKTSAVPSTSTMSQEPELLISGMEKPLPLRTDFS

O=C(O)Cn1c2ccccc2c(=O)c2cc(/C=C\c3ccccc3)ccc21 [Compound 80]
IC50 [1]: 100 to 500 µM

Cc1ccccc1CCc1ccc2c(c1)c(=O)c1ccccc1n2CC(=O)O [Compound 74]
IC50 [1]: 100 to 500 µM

O=C(O)Cn1c2ccc(CCc3ccccc3)cc2c(=O)c2ccc(Cl)c(Cl)c21 [Compound 88]
IC50 [1]: 100 to 500 µM

Cc1cc2c(=O)c3ccc(Cl)c(Cl)c3n(CC(=O)O)c2cc1N(C)C [Compound 64]
IC50 [1]: 100 to 500 µM

CC1(C)c2ccccc2N(CC(=O)O)c2ccc(Br)cc21 [Compound 86]
IC50 [1]: 500 to 1000 µM

O=C(O)Cn1c2ccccc2c(=O)c2c(Cl)c(Cl)ccc21 [Compound 48]
IC50 [1]: > 1000 µM

Cc1cc(Cl)c2c(c1)c(=O)c1ccc(C)cc1n2CC(=O)O [Compound 38]
IC50 [1]: 500 to 1000 µM

CC(C)c1cccc2c1c(=O)c1ccc(Cl)c(Cl)c1n2CC(=O)O [Compound 55]
IC50 [1]: 500 to 1000 µM

O=C(O)Cn1c2cccc(F)c2c(=O)c2ccc(Cl)c(Cl)c21 [Compound 31]
IC50 [1]: 500 to 1000 µM

O=C(O)Cn1c2cc(Br)ccc2c(=O)c2ccc(Cl)c(Cl)c21 [Compound 79]
IC50 [1]: 100 to 500 µM

O=C(O)Cn1c2ccccc2c(=O)c2cc(Cl)cc(Cl)c21 [Compound 58]
IC50 [1]: > 1000 µM

Cc1ccc2c(c1)c(=O)c1ccc(Cl)c(Cl)c1n2CC(=O)O [Compound 121]
IC50 [1]: 500 to 1000 µM

Cc1ccc2c(=O)c3cc(Br)ccc3n(CC(=O)O)c2c1 [Compound 78]
IC50 [1]: > 1000 µM

O=C(O)Cn1c2ccccc2c(=O)c2ccc(Cl)c(Br)c21 [Compound 51]
IC50 [1]: 100 to 500 µM

CCNc1ccc2c(=O)c3ccc(Cl)c(Cl)c3n(CC(=O)O)c2c1 [Compound 123]
IC50 [1]: < 100 µM

O=C(O)Cn1c2cc(C3=CCCC3)ccc2c(=O)c2ccc(Cl)c(Cl)c21 [Compound 114]
IC50 [1]: < 100 µM

CC(C)c1ccc(-c2ccc3c(=O)c4ccc(Cl)c(Cl)c4n(CC(=O)O)c3c2)cc1 [Compound 91]
IC50 [1]: < 100 µM

CC(C)c1ccc(-c2ccc3c(c2)c(=O)c2ccccc2n3CC(=O)O)cc1 [Compound 41]
IC50 [1]: < 100 µM

CC1(C)CCC=C(c2ccc3c(c2)c(=O)c2ccccc2n3CC(=O)O)C1 [Compound 73]
IC50 [1]: 100 to 500 µM

O=C(O)Cn1c2ccc(Br)cc2c(=O)c2ccc(Cl)c(Cl)c21 [Compound 89]
IC50 [1]: 100 to 500 µM

O=C(O)Cn1c2ccccc2c(=O)c2cc(Cl)c(Cl)cc21 [Compound 57]
IC50 [1]: > 1000 µM

N#Cc1ccc2c(=O)c3ccccc3n(CC(=O)O)c2c1Cl [Compound 107]
IC50 [1]: < 100 µM

Cc1cc2c(=O)c3ccc(Cl)c(Cl)c3n(CC(=O)O)c2cc1N1CCOCC1 [Compound 63]
IC50 [1]: 100 to 500 µM

CSc1ccc2c(=O)c3ccc(SC)c(Cl)c3n(CC(=O)O)c2c1 [Compound 46]
IC50 [1]: > 1000 µM

COc1cccc(CCc2ccc3c(c2)c(=O)c2ccccc2n3CC(=O)O)c1 [Compound 43]
IC50 [1]: 500 to 1000 µM

O=C(O)Cn1c2ccccc2c(=O)c2c(Cl)ccc(Cl)c21 [Compound 56]
IC50 [1]: 500 to 1000 µM

O=C(O)CN1c2ccccc2Cc2cc(CCC3CCCCC3)ccc21 [Compound 90]
IC50 [1]: 500 to 1000 µM

COc1ccccc1CCc1ccc2c(c1)c(=O)c1ccccc1n2CC(=O)O [Compound 42]
IC50 [1]: 500 to 1000 µM

Cc1cc2c(=O)c3ccc(Cl)c(Cl)c3n(CC(=O)O)c2cc1F [Compound 93]
IC50 [1]: 500 to 1000 µM

O=C(O)Cn1c2cc(NC3CCC3)ccc2c(=O)c2ccc(Cl)c(Cl)c21 [Compound 117]
IC50 [1]: < 100 µM

CC(C)Nc1ccc2c(=O)c3ccc(Cl)c(Cl)c3n(CC(=O)O)c2c1 [Compound 119]
IC50 [1]: < 100 µM

O=C(O)Cn1c2cc(F)ccc2c(=O)c2ccc(Cl)c(Cl)c21 [Compound 30]
IC50 [1]: > 1000 µM

CC(C)c1ccc(-c2cccc3c2c(=O)c2ccc(Cl)c(Cl)c2n3CC(=O)O)cc1 [Compound 54]
IC50 [1]: 100 to 500 µM

O=C(O)Cn1c2ccccc2c(=O)c2cc(C#CC3CCCCC3)ccc21 [Compound 39]
IC50 [1]: 100 to 500 µM

Cc1ccc2c(c1C)c(=O)c1ccc(Cl)c(Cl)c1n2CC(=O)O [Compound 96]
IC50 [1]: 100 to 500 µM

COc1ccc2c(=O)c3ccc(Cl)c(Cl)c3n(CC(=O)O)c2c1 [Compound 95]
IC50 [1]: 100 to 500 µM

CC(C)c1ccc(-c2ccc3c(c2)c(=O)c2ccc(Cl)c(Cl)c2n3CC(=O)O)cc1 [Compound 72]
IC50 [1]: < 100 µM

O=C(O)Cn1c2cc(-c3ccccc3)ccc2c(=O)c2ccc(Cl)c(Cl)c21 [Compound 65]
IC50 [1]: < 100 µM

CCOc1c(Cl)ccc2c(=O)c3ccccc3n(CC(=O)O)c12 [Compound 244]
WT_DSF_hSWAT Tm Shift (° C.) [2]: D (“D” > 7° C.) | Emax [3]: > 50% | MOUSE DSF_6xHIS-SUMO Tm Shift (° C.) [4]: C (“C” = 5-15° C.) | IC50 [5]: 20 to 100 µM | IC50 [6]: 100 to 300 µM

O=C(O)Cn1c2cc(-c3ccc(Cl)cc3)ccc2c(=O)c2ccc(Cl)c(Cl)c21 [Compound 156]
WT_DSF_hSWAT Tm Shift (° C.) [2]: B (“B” = 0-2° C.) | Emax [3]: < 5% | MOUSE DSF_6xHIS-SUMO Tm Shift (° C.) [4]: C (“C” = 5-15° C.) | IC50 [5]: < 20 µM | IC50 [6]: 100 to 300 µM

COc1c(Cl)ccc2c(=O)c3ccc(Nc4cnccn4)cc3n(CC(=O)O)c12 [Compound 263]
WT_DSF_hSWAT Tm Shift (° C.) [2]: D (“D” > 7° C.) | Emax [3]: < 5% | MOUSE DSF_6xHIS-SUMO Tm Shift (° C.) [4]: D (“D” > 15° C.) | IC50 [5]: < 20 µM | IC50 [6]: 20 to 100 µM

COc1c(Cl)ccc2c(=O)c3ccc(Nc4cccc5ccccc45)cc3n(CC(=O)O)c12 [Compound 297]
WT_DSF_hSWAT Tm Shift (° C.) [2]: D (“D” > 7° C.) | Emax [3]: > 50% | MOUSE DSF_6xHIS-SUMO Tm Shift (° C.) [4]: D (“D” > 15° C.) | IC50 [5]: < 20 µM | IC50 [6]: < 20 µM

COc1c(Cl)cc(O)c2c(=O)c3ccccc3n(CC(=O)O)c12 [Compound 314]
WT_DSF_hSWAT Tm Shift (° C.) [2]: C (“C” = 2-7° C,) | Emax [3]: > 50% | MOUSE DSF_6xHIS-SUMO Tm Shift (° C.) [4]: C (“C” = 5-15° C.) | IC50 [5]: 100 to 300 µM | IC50 [6]: > 300 µM

O=C(O)Cn1c2cc(-c3cccc(F)c3)ccc2c(=O)c2ccc(Cl)c(Cl)c21 [Compound 152]
WT_DSF_hSWAT Tm Shift (° C.) [2]: C (“C” = 2-7° C,) | Emax [3]: 5 to 25% | MOUSE DSF_6xHIS-SUMO Tm Shift (° C.) [4]: C (“C” = 5-15° C.) | IC50 [5]: 20 to 100 µM | IC50 [6]: 20 to 100 µM

COc1ccccc1Nc1ccc2c(=O)c3ccc(Cl)c(OC)c3n(CC(=O)O)c2c1 [Compound 298]
WT_DSF_hSWAT Tm Shift (° C.) [2]: D (“D” > 7° C.) | Emax [3]: > 50% | MOUSE DSF_6xHIS-SUMO Tm Shift (° C.) [4]: D (“D” > 15° C.) | IC50 [5]: < 20 µM | IC50 [6]: 20 to 100 µM

COc1c(Cl)ccc2c(=O)c3ccc(-c4ccc(N)cc4)cc3n(CC(=O)O)c12 [Compound 274]
WT_DSF_hSWAT Tm Shift (° C.) [2]: D (“D” > 7° C.) | Emax [3]: > 50% | MOUSE DSF_6xHIS-SUMO Tm Shift (° C.) [4]: D (“D” > 15° C.) | IC50 [5]: < 20 µM | IC50 [6]: < 20 µM

Source: patent publication US11414387B2, “Oxoacridinyl acetic acid derivatives and methods of use” (Stingthera, Inc., priority 2017, dated 2022)
